From paper PMC12707061 (National Science Review, 2025)

What was measured:
[1] = test system: mPFC VIP neurons; assay: Patch-clamp recordings of mPFC VIP neurons in slices after in vivo drug injection; set-up: species or system mice; settings: for resting membrane potential (RMP) of VIP neurons, average: saline controls −58.8 mV
Procedure: The brain was removed quickly after decapitation and immediately put into ice-cold oxygenated NMDG ACSF. A few minutes later, coronal slices containing the mPFC (300 μm thickness for mice) were sectioned in cold ACSF using a vibratome (VT1200 S, Leica) and then transferred into oxygenated NMDG ACSF at 32°C for incubation and recovery for 10–15 min. […] All chemicals were purchased from Sigma–Aldrich (St. Louis, MO, USA).
(§1) All drugs were dissolved in 0.9% saline and administered by intraperitoneal (i.p.) injection.
For in intro brain slices recording, AAV-Ef1α-DIO-mCherry virus was injected in the mPFC for labeling VIP neurons, and a 26-gauge double guide cannula (center-to-center distance 0.80 mm; RWD, China) was subsequently implanted in the same site of Vip-Cre mice.
For mPFC VIP neuron recordings, brain slices were transferred into the recording chamber filled with ACSF. VIP positive neurons were visualized with differential interference contrast optics (DIC, Olympus BX61WI). The recording pipettes (4-5 MΩ) were pulled with a micropipette puller (P97, Sutter Instrument; USA). […] When the whole-cell record was formed, to record the neuronal firing, the neurons were held at I=0 pA under current-clamp mode; to measure the intrinsic membrane properties, the same neurons were held at […] and spikes were induced by increases of current injection (each step was 5 pA, range –10-45 pA). All recordings were performed for 5 minutes typically.
The specific operation is as follows: using the Threshold search function in the Clampfit software Event Detection, setting the baseline and threshold for identifying the action potential, and then automatically identifying and measuring each action potential. The curve of firing was plotted using MATLAB. All events, including the spike numbers, were finally verified by eye.

[2] = test system: mice; assay: TST, FST and OFT in mice with ketamine and pre-treatments; settings: for locomotion and anxiety-like behaviors during the OFT: 1 h after injection; for effect of pre-treatment on ketamine's decrease of immobility in TST and FST: p-CPA i.p. once per day for 3 days, palonosetron into mPFC 0.5 h before ketamine
Procedure: Behavioral experiments were performed after 3-4 weeks of viral expression.
For behavioral experiments, C57BL/6 mice were recovered for at least 7 days before behavioral testing. Before micro-infusions, a 26-gauge internal injector with 3 mm projection was placed into the guide cannula, connected via PE tubing to a Hamilton micro-syringe driven by hand. […] The injector cannula was removed 3 min after infusion was finished, and corresponding behavioral tests were performed.
The mice were suspended in a computerized device allowing four animals to be recorded at one time, and were separated in a chamber, both acoustically and visually isolated. To ensure mice could not contact or climb with other things, an individual mouse was suspended 50 cm above the floor by a tail tape that was placed approximately 1 cm from the tip of the tail. The activities of the animals were recorded for 6 minutes by a video recorder. The total duration of immobility at the last 4 minutes of testing time was analyzed by one who was blinded to the test.
The FST apparatus was a clear glass tank (40 cm high and 20 cm in diameter) filled with water (25-26 °C), and the water depth was set to ensure mice could not touch the bottom with their tails or hind limbs. Mice were placed individually into the apparatus and allowed to swim for 6 minutes. The mice were considered immobile when floating in the water without struggling and making only those movements necessary to keep their heads above the water. Total immobility times during the last 4 minutes of the 6-minute testing period were analyzed by a researcher blinded to the test.
Mice were placed in a white open field chamber (38 x 38 x 40 cm) built by an acrylic plate in a room with dim light. The movement of each animal was tracked by a video camera positioned directly above the chamber (Jiliang, Shanghai). Time spent in the center zone of the chamber was a measure of anxiety behavior. Mice were allowed to move freely for 5 minutes in the arena. Total distance and center zone time were automatically analyzed by software (Jiliang, Shanghai).

[3] = test system: mPFC VIP neurons; assay: Whole-cell recordings of mPFC VIP neurons with bath application of drugs to brain slices; assay type: cell-based, mice; settings: for activation (firing) of VIP neurons: bath application, 5-HT 5 μM, AP5 100 μM, slices from normal mice
Procedure: Adult (10–16 weeks old) VIP-Cre-expressing mCherry mice with or without a cannula were firstly anesthetized by being injected intraperitoneally with tribromoethanol (250 mg/kg) and then perfused transcardially with 20 mL of ice-cold N-methyl-D-glucamine (NMDG) artificial cerebrospinal fluid (ACSF) solution (oxygenated with 5% CO2 + 95% O2) containing (mM): 93 NMDG, 93 HCl, 2.5 KCl, 10 MgSO4·7H2O, 1.2 NaH2PO4·2H2O, 30 NaHCO3, 25 glucose, 20 HEPES, 5 sodium ascorbate, 3 sodium pyruvate and 2 thioureas, with 0.5 CaCl2·2H2O added (pH: 7.35, 303 mOsm). The brain was removed quickly after decapitation and immediately put into ice-cold oxygenated NMDG ACSF. A few minutes later, coronal slices containing the mPFC (300 μm thickness for mice) were sectioned in cold ACSF using a vibratome (VT1200 S, Leica) and then transferred into oxygenated NMDG ACSF at 32°C for incubation and recovery for 10–15 min. The brain slices were transferred to a normal oxygenated ACSF solution (126 mM NaCl, 2.5 mM KCl, 2 mM MgSO4·7H2O, 1.25 mM NaH2PO4·2H2O, 25 mM NaHCO3, 10 mM glucose, 2 mM CaCl2) at room temperature for 1 h. All chemicals were purchased from Sigma–Aldrich (St. Louis, MO, USA).
For mPFC VIP neuron recordings, brain slices were transferred into the recording chamber filled with ACSF. VIP positive neurons were visualized with differential interference contrast optics (DIC, Olympus BX61WI). The recording pipettes (4-5 MΩ) were pulled with a micropipette puller (P97, Sutter Instrument; USA). For whole-cell patch-clamp recording, the pipette was filled with an internal solution containing (mM) 133 potassium gluconate, 18 NaCl, 0.6 EGTA, 2 Mg·ATP, 0.3 Na3·GTP, 10 Hepes (pH: 7.20, 280-290 mOsm). […]
To investigate the underlying synergistic effects of 5-HT (5 μM, Sigma) and AP5 (100 μM, Sigma) on neuronal excitability and firing, the two drugs were alone or together continuously perfused into the recording chamber using a medicine delivery pipe after a baseline was recorded for 5 min. The spikes were recorded under […] 1 minute after the drugs were delivered. […]

[4] = test system: mPFC VIP neurons expressing the hM4Di receptor; assay: Cell-attached recording of hM4Di-expressing mPFC VIP neurons in brain slices; assay type: cell-based, mice; settings: 10 μM
Procedure: In the chemogenetic inhibition assay, we injected the AAV-DIO-hM4Di-mCherry vector into the bilateral mPFC of VIP-Cre mice. […] Behavioral experiments were performed after mice had been allowed to recover for 3 weeks after viral injection (Fig. 5A).

[5] = test system: mice; assay: MK-801 alone and with fluoxetine: behavioural tests 24 h after injection; assay type: in vivo; settings: single injection, alone
Procedure: as §1

[6] = test system: PV neurons in the mPFC; assay: Activation/excitability of mPFC PV neurons after ketamine (c-Fos, patch-clamp); assay type: in vivo, mice; settings: after ketamine injection
Procedure: (§2) VIP, parvalbumin (PV) and somatostatin (SST) neurons are the three main types of gamma-aminobutyric acid (GABA)ergic interneurons in the mPFC [63].
(§3) All mice were deeply anesthetized with an overdose of pentobarbital and then transcardially perfused with 0.9% saline solution followed by 4% paraformaldehyde (PFA) in PBS. After 24 h of post-fixation in 4% PFA overnight at 4 °C, brains were subsequently immersed in a 30% sucrose solution for dehydration for 24-48 h. Brains were sectioned coronally at a thickness of 40 μm with a Vibration Microtome (Leica VT1200S). Coronal brain sections were washed in PBS, blocking solution containing 0.5% Triton X-100 and 5% normal bovine serum albumin was dissolved in 1x PBS. After blocking for 1-2 h and washing, brain sections were incubated with the primary antibody rabbit polyclonal anti-c-Fos (1:1000, Synaptic system) for 48 h at 4 °C. After washing, these brain sections were incubated with secondary antibody Alexa Fluor 594-conjugated donkey anti-rabbit IgG (1:1000, Jackson ImmunoResearch) at […]. Cell nuclei were identified using the 4, 6-diamidino-2-phenylindole (DAPI) stain (1:10000, Jackson ImmunoResearch). Imaging was carried out with a digital slide scanner (Olympus, VS120-S6-W) and a confocal microscope (Nikon, Ti-E+A1R SI).

[7] = test system: 5-HT neurons in the dorsal raphe nucleus (DRN); assay: c-Fos activation of DRN 5-HT neurons after ketamine; assay type: in vivo, mice; settings: after ketamine injection
Procedure: as §3

[8] = test system: VIP neurons in the mPFC; assay: c-Fos immunolabeling of mPFC VIP neurons after ketamine; assay type: in vivo, mice; settings: antidepressant dose; 1.5 h after injection; average
Procedure: as §2, §3

[9] = test system: SST neurons in the mPFC; assay: Activation/excitability of mPFC SST neurons after ketamine (c-Fos, patch-clamp); assay type: in vivo, mice; settings: after ketamine injection
Procedure: as §2, §3

[10] = test system: mPFC 5-HT; assay: In vivo real-time microdialysis of mPFC 5-HT; set-up: species or system mice; settings: i.p. 10 mg/kg; during the 15 min after injection; baseline ∼100%
[11] = palonosetron into mPFC before ketamine

## NC(Cc1ccc(Cl)cc1)C(=O)O (racemic) [p-CPA, 4-chloro-DL-phenylalanine]
[1]; 1 h after injection
  number of spikes in response to depolarizing current pulses: decreased
  resting membrane potential (RMP) of VIP neurons, average: −69.7 mV
[2]
  locomotion and anxiety-like behaviors during the OFT: did not affect locomotion or cause anxiety-like behaviors
  effect of pre-treatment on ketamine's decrease of immobility in TST and FST: attenuated the ketamine-related decrease in the duration of immobility

## NCCc1c[nH]c2ccc(O)cc12 [5-HT, serotonin]
[3]
  activation (firing) of VIP neurons: did not activate VIP neurons

## NC(CCCP(=O)(O)O)C(=O)O (centres unmarked) [AP5]
[1]; 1 h after injection
  resting membrane potential (RMP) of VIP neurons, average: –65.1 mV
[3]
  activation (firing) of VIP neurons: did not activate VIP neurons

## C[N+]1([O-])CCN(C2=Nc3cc(Cl)ccc3Nc3ccccc32)CC1 [CNO, clozapine N-oxide]
[4]
  mPFC VIP neuron activity in brain slices: significantly inhibited

## C[C@]12N[C@H](Cc3ccccc31)c1ccccc12 [MK-801]
[5]
  antidepressant effects after 24 h: does not result in antidepressant effects

## CNCCC(Oc1ccc(C(F)(F)F)cc1)c1ccccc1 (centres unmarked) [fluoxetine]
[5]
  antidepressant effects after 24 h: does not result in antidepressant effects

## CNC1(c2ccccc2Cl)CCCCC1=O (centres unmarked) [ketamine]
[1]; 1 h after injection
  number of spikes in response to depolarizing current pulses: remarkable increase
  resting membrane potential (RMP) of VIP neurons, average: −44.2 mV
[1]; 1 h after injection, ketamine 10 mg/kg i.p., p-CPA 150 mg/kg once daily 3 days, AP5 40 nmol mPFC, fluoxetine 10 mg/kg i.p.
  percentage of firing VIP neurons: 75%
[1]; firing neurons after ketamine
  membrane capacitance of VIP neurons: no change in membrane capacitance
[6]
  changes in electrophysiological characteristics of excitability of PV neurons: neither PV nor SST neurons showed any changes
[7]
  activation of DRN 5-HT neurons: did not activate
[8]
  VIP neurons activated (c-Fos+ among VIP neurons): 38.8%
[9]
  changes in electrophysiological characteristics of excitability of SST neurons: neither PV nor SST neurons showed any changes

## CC12CC3CC(C)(C1)CC(N)(C3)C2 [memantine]
[10]
  average relative-to-baseline 5-HT levels in the mPFC: did not show such an effect

## O=C1c2cccc3c2[C@H](CCC3)CN1[C@@H]1CN2CCC1CC2 [palonosetron]
[1]; palonosetron into mPFC 0.5 h before ketamine i.p., controls ∼10.5%
  percentage of firing VIP neurons: ~10%
[1]; [11]
  change in RMP of VIP neurons: no change in the RMP
  change in membrane capacitance of VIP neurons: moderate increase in membrane capacitance
  change in membrane resistance of VIP neurons: no change in membrane resistance
[2]
  locomotion and anxiety-like behaviors during the OFT: did not affect locomotion or cause anxiety-like behaviors
  effect of pre-treatment on ketamine's decrease of immobility in TST and FST: this effect was blocked
[3]; palonosetron 10 μM
  effect on VIP neuron activation by 5-HT combined with AP5: blocked the effect of 5-HT combined with AP5
